Experimental data from ChEMBL document CHEMBL1122943, “Cardiotonic agents. 2. Synthesis and structure-activity relationships of 4,5-dihydro-6-[4-(1H-imidazol-1-yl)phenyl]-3(2H)-pyridazinones: a new class of positive inotropic agents” (1985).

Assays:
Canis familiaris [1] = experiment: Evaluated for 50% increase of myocardial contractility in anesthetized dog, administered intravenously; assay type: functional, Canis lupus familiaris, Myocardium
Canis familiaris [2] = experiment: Cardiovascular activity (contractility) (0.31 ug/kg) in dog before beta-blockade.; assay type: functional, Canis lupus familiaris
Canis familiaris [3] = experiment: Cardiovascular activity (blood pressure) (0.31 ug/kg)in dog after beta-blockade; assay type: functional, Canis lupus familiaris
Canis familiaris [4] = experiment: Cardiovascular activity (blood pressure) (0.31 ug/kg) in dog before beta-blockade; assay type: functional, Canis lupus familiaris
Canis familiaris [5] = experiment: Cardiovascular activity (heart rate) (0.31 ug/kg) in dog before beta-blockade; assay type: functional, Canis lupus familiaris
Canis familiaris [6] = experiment: Cardiovascular activity (heart rate) (0.31 ug/kg) in dog after beta-blockade.; assay type: functional, Canis lupus familiaris
Canis familiaris [7] = experiment: Cardiovascular activity (contractility) (0.31 ug/kg) in dog after beta-blockade; assay type: functional, Canis lupus familiaris
Canis familiaris [8] = experiment: Compound was evaluated for 40-60% increase of myocardial contractility in a conscious dog model orally administered; assay type: functional, Canis lupus familiaris, Myocardium
Canis familiaris [9] = experiment: Percent increase in contractility was evaluated by effect of Cardiotonic agents on myocardial contractility in conscious dog administered orally at dose of 10 mg/kg; assay type: functional, Canis lupus familiaris, Myocardium; conditions: route oral
Canis familiaris [10] = experiment: Percent increase in heart rate was evaluated by effect of Cardiotonic agents on myocardial contractility in conscious dog administered orally at dose of 10 mg/kg; assay type: functional, Canis lupus familiaris; conditions: route oral
Canis familiaris [11] = experiment: Percent increase in contractility was evaluated by effect of Cardiotonic agents on myocardial contractility in conscious dog administered orally at dose of 3.1 mg/kg; assay type: functional, Canis lupus familiaris, Myocardium; conditions: route oral
Canis familiaris [12] = experiment: Percent increase in heart rate was evaluated by effect of Cardiotonic agents on myocardial contractility in conscious dog administered orally at dose of 3.1 mg/kg; assay type: functional, Canis lupus familiaris; conditions: route oral
Canis familiaris [13] = experiment: Percent increase in contractility was evaluated by effect of Cardiotonic agents on myocardial contractility in conscious dog administered orally at dose of 1.0 mg/kg; assay type: functional, Canis lupus familiaris, Myocardium; conditions: route oral
Canis familiaris [14] = experiment: Percent increase in heart rate was evaluated by effect of Cardiotonic agents on myocardial contractility in conscious dog administered orally at dose of 1.0 mg/kg; assay type: functional, Canis lupus familiaris; conditions: route oral
Canis familiaris [15] = experiment: Compound was evaluated for 50% increase of myocardial contractility in a conscious dog model orally administered.; assay type: functional, Canis lupus familiaris, Myocardium
Canis familiaris [16] = experiment: Compound was evaluated for 40-60% increase of myocardial contractility in a conscious dog model perorally administered; assay type: functional, Canis lupus familiaris, Myocardium
Canis familiaris [17] = experiment: Percent increase in contractility was evaluated by effect of Cardiotonic agents on myocardial contractility in conscious dog administered orally at dose of 0.31 mg/kg; assay type: functional, Canis lupus familiaris, Myocardium; conditions: route oral
Canis familiaris [18] = experiment: Percent increase in contractility was evaluated by effect of Cardiotonic agents on myocardial contractility in conscious dog administered orally at dose of 0.1 mg/kg; assay type: functional, Canis lupus familiaris, Myocardium; conditions: route oral
Canis familiaris [19] = experiment: Percent increase in heart rate was evaluated by effect of Cardiotonic agents on myocardial contractility in conscious dog administered orally at dose of 0.31 mg/kg; assay type: functional, Canis lupus familiaris; conditions: route oral
Canis familiaris [20] = experiment: Compound was evaluated for 40-60% increase of myocardial contractility in a conscious dog model orally administered.; assay type: functional, Canis lupus familiaris, Myocardium
Canis familiaris [21] = experiment: Percent increase in heart rate was evaluated by effect of Cardiotonic agents on myocardial contractility in conscious dog administered orally at dose of 0.1 mg/kg; Value is not statistically significant.; assay type: functional, Canis lupus familiaris; conditions: route oral
Canis familiaris [22] = experiment: Percent increase in contractility was evaluated by effect of Cardiotonic agents on myocardial contractility in conscious dog administered orally at dose of 0.31 mg/kg; Value ranges from (10-20); assay type: functional, Canis lupus familiaris, Myocardium; conditions: route oral
Canis familiaris [23] = experiment: Cardiovascular activity (contractility) (0.31 mg/kg) in dog after beta-blockade; assay type: functional, Canis lupus familiaris
Canis familiaris [24] = experiment: Percent increase in heart rate was evaluated by effect of Cardiotonic agents on myocardial contractility in conscious dog administered orally at dose of 0.31 mg/kg; Value ranges from(10-15); assay type: functional, Canis lupus familiaris; conditions: route oral
Canis familiaris [25] = experiment: Cardiovascular activity(heart rate) (0.31 mg/kg) in dog after beta-blockade; assay type: functional, Canis lupus familiaris
Canis familiaris [26] = experiment: Cardiovascular activity (contractility) (0.31 mg/kg) in dog before beta-blockade.; assay type: functional, Canis lupus familiaris
Canis familiaris [27] = experiment: Cardiovascular activity(blood pressure) (0.31 mg/kg) in dog after beta-blockade; assay type: functional, Canis lupus familiaris
Canis familiaris [28] = experiment: Cardiovascular activity(blood pressure) (0.31 mg/kg) in dog before beta-blockade.; assay type: functional, Canis lupus familiaris
Canis familiaris [29] = experiment: Cardiovascular activity(heart rate) (0.31 mg/kg) in dog before beta-blockade; assay type: functional, Canis lupus familiaris

## Oc1ccc(-c2ccc(-n3cnc4c3CCCC4)cc2)nn1
Canis familiaris [1]
  Dose: 0.1 mg/kg

## NC(=O)c1cc(-c2ccc(-n3ccnc3)cc2)nnc1O
Canis familiaris [1]
  Dose: >1 mg/kg

## O=c1ccc(-c2ccc(-n3ccnc3)cc2)nn1CCO
Canis familiaris [1]
  Dose: >1 mg/kg

## O=C(O)c1cc(-c2ccc(-n3ccnc3)cc2)nnc1O
Canis familiaris [1]
  Dose: >1 mg/kg

## O=C1CCC(c2ccc(-n3cnc(CO)c3)cc2)=NN1
Canis familiaris [1]
  Dose: 0.034 mg/kg

## CC(C)NCC(O)c1ccc(O)c(O)c1 (stereo not drawn) [ISOPROTERENOL]
Canis familiaris [2]
  Change: 96%
Canis familiaris [3]
  Change: 1%
Canis familiaris [4]
  Change: -6.6%
Canis familiaris [5]
  Change: 31%
Canis familiaris [6]
  Change: 0.4%
Canis familiaris [7]
  Change: 10.4%

## O=C1CCC(c2ccc(-n3ccnc3)cc2)=NN1Cc1ccccc1
Canis familiaris [8]
  Dose: 10 mg/kg

## Cc1cc(O)nnc1-c1ccc(-n2ccnc2)cc1
Canis familiaris [1]
  Dose: >1 mg/kg

## Nc1cc(-c2ccncc2)c[nH]c1=O [INAMRINONE]
Canis familiaris [9]
  Increase: 45%
Canis familiaris [10]
  Increase: 18%
Canis familiaris [1]
  Dose: 0.389 mg/kg
Canis familiaris [11]
  Increase: 6%
Canis familiaris [12]
  Increase: 23%

## O=C1CCC(c2ccc(-n3cnc4ccccc43)cc2)=NN1
Canis familiaris [1]
  Dose: 0.1 mg/kg
Canis familiaris [8]
  Dose: 3.1 mg/kg

## Cc1[nH]c(=O)c(C#N)cc1-c1ccncc1 [MILRINONE]
Canis familiaris [1]
  Dose: 0.037 mg/kg
Canis familiaris [13]
  Increase: 45%
Canis familiaris [14]
  Increase: 60%

## C[S+]([O-])c1nccn1-c1ccc(C2=NNC(=O)CC2)cc1 (stereo not drawn)
Canis familiaris [1]
  Dose: 0.3 mg/kg
Canis familiaris [8]
  Dose: 10 mg/kg

## O=C1CCC(c2ccc(-n3cnc4c3CCCC4)cc2)=NN1
Canis familiaris [1]
  Dose: 0.064 mg/kg
Canis familiaris [8]
  Dose: >1 mg/kg

## O=C1CCC(c2cccc(-n3ccnc3)c2)=NN1
Canis familiaris [15]
  Dose: >1 mg/kg

## Oc1ccc(-c2ccc(-n3ccnc3)cc2)nn1
Canis familiaris [1]
  Dose: 0.1 mg/kg

## O=C1CCC(c2ccc(-n3cccc3)cc2)=NN1
Canis familiaris [8]
  Dose: 10 mg/kg

## COc1cc([S+](C)[O-])ccc1-c1nc2cccnc2[nH]1 (stereo not drawn) [SULMAZOLE]
Canis familiaris [9]
  Increase: 57%
Canis familiaris [10]
  Increase: 61%
Canis familiaris [1]
  Dose: 0.435 mg/kg

## CSc1ccc(C(=O)c2[nH]c(=O)[nH]c2C)cc1 [ENOXIMONE]
Canis familiaris [1]
  Dose: 0.283 mg/kg

## O=C1CCC(c2ccc(-n3cnnc3)cc2)=NN1
Canis familiaris [8]
  Dose: >3.1 mg/kg

## Cc1nccn1-c1ccc(C2=NNC(=O)CC2)cc1
Canis familiaris [16]
  Dose: 1 mg/kg
Canis familiaris [1]
  Dose: 0.3 mg/kg

## CS(=O)(=O)c1nccn1-c1ccc(C2=NNC(=O)CC2)cc1
Canis familiaris [8]
  Dose: >1 mg/kg

## Cc1cc(-c2ccc(-n3ccnc3)cc2)nnc1O
Canis familiaris [1]
  Dose: 0.3 mg/kg

## CC1CC(O)=NN=C1c1ccc(-n2ccnc2)cc1 (stereo not drawn) [CI-930]
Canis familiaris [17]
  Increase: 70%
Canis familiaris [1]
  Dose: 0.013 mg/kg
Canis familiaris [18]
  Increase: 42%
Canis familiaris [19]
  Increase: 49%
Canis familiaris [20]
  Dose: 0.1 mg/kg
Canis familiaris [21]
  Increase: 34%

## CC1CC(=O)NN=C1c1ccc(-n2cnc3c2CCCC3)cc1 (stereo not drawn) [TETRAHYDROBENXIMIDAZOLE]
Canis familiaris [1]
  Dose: 0.02 mg/kg
Canis familiaris [8]
  Dose: 0.3 mg/kg

## Cc1cc(O)nnc1-c1ccc(-n2cnc3c2CCCC3)cc1
Canis familiaris [1]
  Dose: >0.1 mg/kg

## O=C1NN=C(c2ccc(-n3ccnc3)cc2)C2CCCCC12 (stereo not drawn)
Canis familiaris [1]
  Dose: 1 mg/kg

## Cn1nc(-c2ccc(-n3ccnc3)cc2)ccc1=O
Canis familiaris [1]
  Dose: >1 mg/kg

## CCc1nc(C)cn1-c1ccc(C2=NNC(=O)CC2)cc1
Canis familiaris [1]
  Dose: 0.1 mg/kg
Canis familiaris [8]
  Dose: <3.1 mg/kg

## CSc1nccn1-c1ccc(C2=NNC(=O)CC2)cc1
Canis familiaris [16]
  Dose: 10 mg/kg

## CCC1CC(=O)NN=C1c1ccc(-n2ccnc2)cc1 (stereo not drawn)
Canis familiaris [1]
  Dose: 1 mg/kg

## O=C1CCC(c2ccc(-n3cncn3)cc2)=NN1
Canis familiaris [8]
  Dose: 1 mg/kg

## CC1CC(c2ccc(-n3ccnc3)cc2)=NNC1=O (stereo not drawn)
Canis familiaris [1]
  Dose: 1 mg/kg

## Oc1ccc(-c2cccc(-n3ccnc3)c2)nn1
Canis familiaris [1]
  Dose: 0.2 mg/kg

## O=C1CCC(c2ccc(-n3cccn3)cc2)=NN1
Canis familiaris [20]
  Dose: >3.1 mg/kg

## NNC(=O)c1cc(-c2ccc(-n3ccnc3)cc2)nnc1O
Canis familiaris [1]
  Dose: 1 mg/kg

## CCc1nc(C)c(Br)n1-c1ccc(-c2ccc(O)nn2)cc1
Canis familiaris [1]
  Dose: 0.2 mg/kg

## O=C1CCC(c2ccc(-n3ccnc3S)cc2)=NN1
Canis familiaris [20]
  Dose: >10 mg/kg

## Nc1cc(-c2ccc(-n3ccnc3)cc2)nnc1O
Canis familiaris [1]
  Dose: 0.3 mg/kg

## CN1N=C(c2ccc(-n3ccnc3)cc2)CCC1=O
Canis familiaris [1]
  Dose: >1 mg/kg

## CC(=O)OCCN1N=C(c2ccc(-n3ccnc3)cc2)CCC1=O
Canis familiaris [1]
  Dose: >1 mg/kg

## CCc1nc(C)cn1-c1ccc(-c2ccc(O)nn2)cc1
Canis familiaris [1]
  Dose: 0.3 mg/kg

## Cc1nccn1-c1ccc(-c2ccc(O)nn2)cc1
Canis familiaris [1]
  Dose: 0.1 mg/kg

## O=C1CCC(c2ccc(-n3ccnc3)cc2)=NN1 [IMAZODAN]
Canis familiaris [22]
  Increase: 10%
Canis familiaris [23]
  Change: 62.4%
Canis familiaris [24]
  Increase: 10%
Canis familiaris [1]
  Dose: 0.045 mg/kg
Canis familiaris [25]
  Change: 5.4%
Canis familiaris [26]
  Change: 82%
Canis familiaris [13]
  Increase: 40%
Canis familiaris [27]
  Change: -2.8%
Canis familiaris [28]
  Change: -4.2%
Canis familiaris [29]
  Change: 24%
Canis familiaris [14]
  Increase: 29%
Canis familiaris [20]
  Dose: 1 mg/kg
